This experiment deals with T1, eEF3 (C‐terminally TAP‐tagged, in native eEF3‐80S complex) (Saccharomyces cerevisiae, UniProt P16521).
T1 construct: gene YEF3; final 68 C-terminal residues including tag not modelled
T1 sequence (P16521 2-1044): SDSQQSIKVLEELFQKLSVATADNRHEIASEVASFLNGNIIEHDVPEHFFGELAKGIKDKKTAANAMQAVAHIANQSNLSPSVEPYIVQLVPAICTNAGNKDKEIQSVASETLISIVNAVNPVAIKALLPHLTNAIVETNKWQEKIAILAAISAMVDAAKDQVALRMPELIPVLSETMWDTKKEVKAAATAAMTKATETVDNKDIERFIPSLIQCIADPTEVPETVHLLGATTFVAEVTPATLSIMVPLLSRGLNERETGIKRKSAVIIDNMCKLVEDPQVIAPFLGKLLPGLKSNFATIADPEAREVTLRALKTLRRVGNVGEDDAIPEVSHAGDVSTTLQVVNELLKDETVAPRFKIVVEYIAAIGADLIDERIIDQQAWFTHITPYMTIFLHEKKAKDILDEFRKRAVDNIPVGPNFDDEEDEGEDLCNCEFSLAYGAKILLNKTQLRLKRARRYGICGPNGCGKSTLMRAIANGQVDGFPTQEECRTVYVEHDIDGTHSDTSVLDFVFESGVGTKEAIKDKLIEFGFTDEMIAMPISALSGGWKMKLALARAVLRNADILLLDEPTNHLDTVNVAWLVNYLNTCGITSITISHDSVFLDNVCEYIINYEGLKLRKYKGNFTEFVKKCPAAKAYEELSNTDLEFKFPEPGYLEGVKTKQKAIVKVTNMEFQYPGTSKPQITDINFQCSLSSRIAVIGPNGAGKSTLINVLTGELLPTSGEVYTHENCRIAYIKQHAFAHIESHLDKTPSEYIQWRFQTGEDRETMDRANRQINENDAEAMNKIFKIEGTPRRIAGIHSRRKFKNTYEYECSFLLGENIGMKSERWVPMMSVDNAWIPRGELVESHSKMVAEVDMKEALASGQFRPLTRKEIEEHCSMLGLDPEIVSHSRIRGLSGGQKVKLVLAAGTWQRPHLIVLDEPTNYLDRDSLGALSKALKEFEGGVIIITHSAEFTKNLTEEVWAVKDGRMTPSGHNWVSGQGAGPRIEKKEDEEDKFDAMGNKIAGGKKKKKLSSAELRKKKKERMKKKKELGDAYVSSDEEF
In words: cryo-EM structure of native eEF3-80S complex ([…] Å). The note with it: ABC1 and ABC2 nucleotide-binding sites; complex eluted with 1 mM ADPNP, pH 7.4, 10 mM Mg(OAc)2; density assigned by authors as ATP (or ADPNP), identity not resolved.

Structures are written as SMILES.

`Nc1ncnc2c1ncn2[C@@H]1O[C@H](COP(=O)(O)OP(=O)(O)NP(=O)(O)O)[C@@H](O)[C@H]1O` [ADPNP]: the “cryo-EM structure of native eEF3-80S complex (3.3 Å)” value was “electron density consistent with ATP (or ADPNP) was observed in the active sites of ABC1”.

The values above are taken from publication PMC7957392, “Yeast translation elongation factor eEF3 promotes late stages of tRNA translocation” (The EMBO Journal, 2021).
